Laboratory results reported in patent publication US5688946A, “Amino acid derivatives having renin inhibiting activity” (Hoffmann La Roche Inc., priority 1989, dated 1997).
Counter-ions that a name gives are not always drawn.

Molecular target: T1, human renin (Homo sapiens, UniProt P00797)
T1 sequence (P00797 67-406): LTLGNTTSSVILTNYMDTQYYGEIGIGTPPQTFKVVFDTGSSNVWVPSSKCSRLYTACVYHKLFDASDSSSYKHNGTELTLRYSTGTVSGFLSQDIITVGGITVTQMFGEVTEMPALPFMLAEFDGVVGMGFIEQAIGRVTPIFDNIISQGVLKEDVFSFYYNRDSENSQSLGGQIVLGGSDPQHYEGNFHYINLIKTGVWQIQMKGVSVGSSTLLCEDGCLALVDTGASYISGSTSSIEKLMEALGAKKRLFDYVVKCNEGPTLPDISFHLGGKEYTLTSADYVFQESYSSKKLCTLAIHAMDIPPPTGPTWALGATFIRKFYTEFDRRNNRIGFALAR
Experiment: In vitro test with pure human renin
Assay type: biochemical
Settings: human tetradecapeptide renin substrate (hTD), pH 7.4, three hours at 37° C., angiotensin I via RIA
Procedure: In vitro test with pure human renin
The test is carried out in Eppendorf test tubes. The incubation mixture consists of (1) 100 μl of human renin in buffer A (0.1M sodium phosphate solution, pH 7.4, containing 0.1% bovine serum albumin, 0.1% sodium azide and 1 mM ethylenediaminetetraacetic acid), sufficient for a renin activity of 2-3 ng of angiotensin I/ml/hr.; (2) 145 μl of buffer A; (3) 30 μl of 10 μM human tetradecapeptide renin substrate (hTD) in 10 mM hydrochloric acid; (4) 15 μl of dimethyl sulphoxide with or without inhibitor and (5) 10 μl of a 0.03 molar solution of hydroxyquinoline sulphate in water.
The samples are incubated for three hours at 37° C. or 4° C. in triplicate. 2×100 μl samples per experimental test tube are used in order to measure the production of angiotensin I via RIA (standard radioimmunoassay; clinical assay solid phase kit). Cross reactivities of the antibody used in the RIA are: angiotensin I 100%; angiotensin II 0.0013%; hTD (angiotensin I-Val-Ile-His-Ser-OH) 0.09%. The production of angiotensin I is determined by the difference between the experiment at 37° C. and that at 4° C.
The following controls are carried out:
(a) Incubation of hTD samples without renin and without inhibitor at 37° C. and 4° C. The difference between these two values gives the base value of the angiotensin I production.
(b) Incubation of hTD samples with renin, but without inhibitor at 37° C. and 4° C. The difference between these values gives the maximal value of angiotensin I production.
In each sample the base value of the angiotensin I production is subtracted from the angiotensin I production which is determined. The difference between the maximal value and the base value gives the value of the maximal substrate hydrolysis (=100%) by renin.
The results are given as IC50 values which denote that concentration of the inhibitor at which the enzymatic activity is inhibited by 50%. The IC50 values are determined from a linear regression curve from a logit-log plot.

| SMILES | IC50 [nM] |
| --- | --- |
| O=C(N[C@@H](Cc1c[nH]cn1)C(=O)N[C@@H](CC1CCCCC1)[C@@H](O)[C@@H](O)C1CC1)c1cc2ccccc2[nH]1 [F, N-[(S)-1-[[(1S,2R,3S)-1-(Cyclohexylmethyl)-3-cyclopropyl-2,3-dihydroxypropyl]carbamoyl]-2-imidazol-4-ylethyl]indole-2-carboxamide] | 21 |
| CC(C)(CN)S(=O)(=O)C[C@@H](Cc1ccccc1)C(=O)N[C@@H](Cc1c[nH]cn1)C(=O)N[C@@H](CC1CCCCC1)[C@@H](O)[C@@H](O)C1CC1 [A, (S)-α-[(S)-α-[[[(2-Amino-1,1-dimethylethyl)sulphonyl]methyl]hydrocinnamamido]-N-[(1S,2R,3S)-1-(cyclohexylmethyl)-3-cyclopropyl-2,3-dihydroxypropyl]imidazole-4-propionamidedihydrochloride] | 1.8 |
| CC(C)(C)S(=O)(=O)C[C@@H](Cc1ccccc1)C(=O)N[C@@H](Cc1c[nH]cn1)C(=O)N[C@@H](CC1CCCCC1)[C@@H](O)[C@@H](F)C1CC1 [E, (S)-α-[(S)-α-[(tert-Butylsulphonyl)methyl]hydrocinnamamido]-N-[(1S,2R,3S)-1-(cyclohexylmethyl)-3-cyclopropyl-3-fluoro-2-hydroxypropyl]imidazole-4-propionamide] | 2.3 |

Further molecules by falling IC50, results first:

| IC50 [nM] | SMILES |
| --- | --- |
| 17 | CC(C)(N)CS(=O)(=O)C[C@@H](Cc1ccccc1)C(=O)N[C@@H](Cc1c[nH]cn1)C(=O)N[C@@H](CC1CCCCC1)[C@@H](O)[C@@H](O)C1CC1 [B, (S)-α-[(S)-α-[[(2-Amino-2-methylpropyl)sulphonyl]methyl]hydrocinnamamido]-N-[(1S,2R,3S)-1-(cyclohexylmethyl)-3-cyclopropyl-2,3-dihydroxypropyl]imidazole-4-propionamide diacetate] |
| 1.2 | O=C(N[C@@H](CC1CCCCC1)[C@@H](O)[C@@H](O)C1CC1)[C@H](Cc1c[nH]cn1)NC(=O)[C@H](Cc1ccccc1)OC(=O)N1CCCCC1 [D, (S)-α-[[(S)-1-[[(1S,2R,3S)-1-(Cyclohexylmethyl)-3-cyclopropyl-2,3-dihydroxypropyl]carbamoyl]-2-imidazol-4-ylethyl]carbamoyl]phenethyl 1-piperidinecarboxylate] |
